Test results from patent EP2805715A1, “Inhibitors of RNR2 subunit of ribonucleotide reductase to impair reverse transcription of hiv related lentiviruses in macrophages and use thereof for the treatment of hiv infected patients” (INSTITUT PASTEUR, priority 2013, dated 2014).
Counter-ions that a name gives are not always drawn. Like-named read-outs stand apart in the source and are kept apart here.

Key:
[1] = tested on: MDM; test: MDM viability; assay type: cell-based, human
[2] = tested on: HIV-1/VSV-G; assay type: cell-based

| Compound | MDM viability ([1]; at the concentrations used in the assays (data not shown)) | HIV-1 replication, fold changes of luciferase activity with respect to mock treated cells [2] | MDM viability [1] |
| --- | --- | --- | --- |
| NC(=O)NO [HU, Hydroxyurea] | not affected | Dose dependent inhibition | – |
| CC(=O)N(O)CCCCCNC(=O)CCC(=O)N(O)CCCCCNC(=O)CCC(=O)N(O)CCCCCN [DFO, Deferoxamine mesylate] | – | Dose dependent inhibition | not affected |
